Data on 3 compounds can be found in patent EP4806421A2, “PHARMACEUTICAL COMPOSITIONS OF NANOCRYSTALLIZED XANTHATIN AND USE THEREOF AS AN ANTI-TUMOR AGENT” (Centro de Investigación y Desarrollo de Medicamentos CIDEM, priority 2023, dated 2025).

Molecules are shown by their SMILES.

Assay [1] has as its system murine U14 cervical carcinoma cells. In words: In vivo antitumor effect of in situ gelation containing xanthatin nanocrystals, tumor implant near the cervix. As to conditions: hydrogel intravaginal 0.850 mg nanocrystallized xanthatin per mouse daily for 5 days, carboplatin i.v. 0.675 mg per mouse for 3 days. Further details: species or system female BALB/c mice. The procedure: Evaluation of the in vivo antitumor effect of in situ gelation containing xanthatin nanocrystals was performed using murine U14 cervical carcinoma cells inoculated into the cervix of female BALB/c mice with an average weights of 22-24 g. Tumor implantation was performed by inoculating the submucosa near the cervix of each animal with 25 µL of cell suspension in PBS, with a total of 4×10^5 cells/mouse. Four randomly distributed groups of 6 animals per group were formed. The treatment schedule was carried out for 5 days with a daily intravaginal infusion of the thermosensitive hydrogel containing the xanthatin nanocrystals (8.5 µL, 0.850 mg of nanocrystallized xanthatin per mouse) and placebo, and for 3 days with a daily intravaginal infusion of […] Tumor weight and tumor inhibition rates were evaluated. Tumor inhibition rate was calculated using the following formula: TIR = (Aw −Ax)/([…]) × 100 [formula]
Where: • TIR means tumor inhibition rate in %. • AW means the average weight of tumors in the control group. • Ax means the average weight of the tumors of the treated group.

For assay [2], the system named is HT-29 human colorectal adenocarcinoma tumor line. In words: Cell cycle progression by flow cytometry (PI/RNase staining). Type of assay: cell-based. As to conditions: HT-29 cells, 10 and 20 µM, 48 h, compared with untreated control and docetaxel 2 µM positive control. The procedure: Assay to evaluate the in vitro antiproliferative activity of nanocrystallized xanthatin by flow cytometry.
The antiproliferative activity through cell cycling arrest was evaluated in HT-29 cells. Cells were cultured in 6-well plates (2×10^5 and 1×10^5 cells/ml, respectively) until 90% confluence was reached. Three xanthatin samples were evaluated: commercial, laboratory-isolated, and nanocrystallized xanthatin at concentrations of 10 and 20 µM. Prior to treatment, both commercial and isolated xanthatin were dissolved in DMSO, unlike nanocrystallized xanthatin, which was added directly to the cell culture medium. Medium supplemented with 1% FBS was used as the control. Docetaxel 2 µM was used as a positive control for cell cycle arrest in G2/M. The treatments were added to the medium supplemented with 1% FBS on the day after seeding the cells on the plates. The cells were incubated for 48 h upon the treatments, harvested, fixed in 100% ethanol, and stored at -20°C. Cell cycle distribution was next assessed using flow cytometry. On the day of the assay, samples were incubated with a PI/Rnase mixture at room temperature and in the dark for 20 min prior to analysis.

The subject of assay [3] is HT-29 colorectal adenocarcinoma. Briefly: MTT reduction assay, cell viability (HT-29). Type of assay: cell-based, human. Particulars: HT-29 cells, 10 and 20 µM, 24 h, isolated xanthatin dissolved in DMSO, nanocrystals added directly to the medium. As for the experimental part:
(§1) Cell growth inhibition of nanocrystallized xanthatin assessed using the MTT assay.
(§2) The viability of the cultured cells was assessed using the MTT reduction assay. The assay was performed using the method described by Mosmann (1983). HT-29 and HeLa cells were seeded in 96-well plates at 10^4 cells/ml and 5x10^3 cells/ml respectively. The cells were cultured in Dulbecco's modified Eagle's medium (DMEM) supplemented with 10% FBS, 1% glutamine, triple antibiotic (3A), and 25 mM glucose, and maintained at 37°C in a 5% CO2 incubator until 80-90% confluence. After 24h of incubation, to ensure cell adhesion, the medium was removed and different concentrations (10 and 20 µM) of either commercial xanthatin, isolated xanthatin, and xanthatin nanocrystals, or as a negative control medium supplemented with 1% DMSO, were added. Prior to treatment, the commercial and isolated xanthatin samples were dissolved in DMSO, unlike the nanocrystallized xanthatin that was directly added to the cell culture medium. The prepared plates were incubated for 24 h, and 50 µL MTT (5 mg/ml) per well was added to a final concentration of 1 mg/ml. […] Relative cell viability was determined by measuring the absorbance at 540 nm on an ELISA plate reader (Tecan Sunrise MR20-301, TECAN Austria). Absorbance is directly proportional to the level of cell proliferation or viability. […]
On the technique in general: Formazan colour is commonly taken as a measure of viable cells.

Assay [4] deals with HeLa cervical carcinoma tumor lines. Briefly: MTT reduction assay, cell viability (HeLa). Type of assay: cell-based, human. Particulars: HeLa cells, 10 and 20 µM, 24 h, isolated xanthatin dissolved in DMSO, nanocrystals added directly to the medium. The procedure: as §1, §2

`N.N.O=C([O-])C1(C(=O)[O-])CCC1.[Pt+2]` [injectable carboplatin, carboplatin]: the tumor inhibition rate in assay [1] (calculated from average tumor weights) was 54.4%. Moreover, in assay [1] (with respect to the placebo and control groups), the tumor weight entry was “significant decrease”.

On to `C=C1C(=O)O[C@H]2C[C@H](C)C(/C=C/C(C)=O)=CC[C@H]12` [commercial xanthatin, xanthatin], for which, in assay [2], the “cell cycle arrest in the G2/M phase” value is “no statistically significant differences”.

As for `C=C1C(=O)O[C@H]2C[C@H](C)C(/C=C/C(C)=O)=CC[C@H]12` [laboratory isolated xanthatin, xanthatin], the viability inhibition result in assay [3] and in assay [4] was “significantly higher than that of commercial xanthatin” in each case. Besides, the “cell cycle arrest in the G2/M phase” value in assay [2] (listed as isolated xanthatin) is recorded as “induced cell cycle arrest in the G2/M phase”.
